Test results: ChEMBL document CHEMBL5260795, “Antifungal potential of marine natural products” (Eur J Med Chem, 2017)
Converted amounts (≈) assume the structure as drawn. Values belong to the compound of their own block, whether it stands above or below them.

How the values were obtained:
Candida albicans [1] = assay: Antifungal activity against amphotericin-B-resistant Candida albicans assessed as zone of inhibition 1 ug/disk; assay type: functional; details: dose 1 µg
Candida albicans [2] = assay: Antifungal activity against Candida albicans ATCC76615 by atomatic microplate reader analysis; assay type: functional
Candida parapsilosis = assay: Antifungal activity against clinical strain Candida parapsilosis by atomatic microplate reader analysis; assay type: functional; details: Lodderomyces parapsilosis
Kluyveromyces marxianus [3] = assay: Antifungal activity against clinical strain Candida pseudotropicalis by atomatic microplate reader analysis; assay type: functional
Nannizzia gypsea [4] = assay: Antifungal activity against Microsporum gypseum ATCC31388 by atomatic microplate reader analysis; assay type: functional
Lindra thalassiae = assay: Antifungal activity against Lindra thalassiae; assay type: functional, organism-based; details: Lindriella thalassiae
Candida albicans [5] = assay: Antifungal activity against wild type Candida albicans; assay type: functional, organism-based
Paradendryphiella salina = assay: Antifungal activity against Dendry-phiella salina; assay type: functional, organism-based
Candida albicans [6] = assay: Antifungal activity against amphotericin-B-resistant Candida albicans; assay type: functional, organism-based
Cladosporium cucumerinum = assay: Antifungal activity against Cladosporium cucumerinum assessed as zone of inhibition; assay type: functional
Nannizzia gypsea [7] = assay: Antifungal activity against Microsporum gypseum; assay type: functional
Kluyveromyces marxianus [8] = assay: Antifungal activity against Candida pseudotropicalis; assay type: functional
Candida albicans [9] = assay: Antimicrobial activity against Candida albicans assessed as inhibition of fungal growth; assay type: functional
Trichophyton rubrum = assay: Antifungal activity against Trichophyton rubrum; assay type: functional

SMILES: CCC(C)CC(C)[C@@H](O)[C@@H](C)C(=O)N[C@H](CN)C(=O)N[C@@H]([C@H](O)[C@H](O)C(=O)N[C@H](C(=O)N[C@H]1C(=O)N[C@H]([C@@H](C)O)C(=O)N[C@H](CCCN)C(=O)N[C@@H](CC(C)C)C(=O)N(C)[C@@H](CCC(N)=O)C(=O)NC(C(OC)C(N)=O)C(=O)N[C@H](CC(N)=O)C(=O)N(C)[C@@H](CC(C)C)C(=O)O[C@@H]1C)[C@@H](C)C(C)C(N)=O)C(C)(C)O (some centres undefined)
inhibition zone (IZ) (Candida albicans [1]): 8 mm

MIC (Candida albicans [2]): 3.4 µg/mL (≈ 2.75 µM)
MIC (Candida parapsilosis): 3.4 µg/mL (≈ 2.75 µM)
MIC (Kluyveromyces marxianus [3]): 3.4 µg/mL (≈ 2.75 µM)
MIC (Nannizzia gypsea [4]): 3.4 µg/mL (≈ 2.75 µM)
SMILES: CO[C@@H]1[C@@H](O)[C@H](O[C@@H]2[C@H](O)[C@H](O[C@H]3[C@H](O)[C@@H](O)[C@H](O[C@H]4[C@H](OC5CC[C@]6(C)C7=C(CC[C@H]6C5(C)C)[C@]5(C)CC[C@H]6[C@]5(CC7)C(=O)O[C@@]6(C)C[C@H](O)CC(C)C)OC[C@@H](O[C@@H]5O[C@H](CO)[C@@H](O)[C@H](O)[C@H]5O)[C@@H]4O)O[C@@H]3CO)OC[C@H]2O)O[C@H](CO)[C@H]1O (some centres undefined)

SMILES: CO[C@H]1C[C@H](CC[C@H](C)[C@H](O)[C@H](C)[C@H]2OC(=O)/C=C/C(C)=C/[C@@H](O)[C@H](OC)C[C@@H]3C=CC[C@@H](C[C@@H](OC)[C@@]4(CO4)[C@@H](OC)C[C@@H](OC)[C@@H]2C)O3)O[C@@H](C)C1
IC50 (Lindra thalassiae): 0.135 µg/mL (≈ 0.176 µM)
IC50 (Candida albicans [5]): 1.3 µg/mL (≈ 1.69 µM)
IC50 (Paradendryphiella salina): 0.034 µg/mL (≈ 0.0443 µM)
IC50 (Candida albicans [6]): 0.5 µg/mL (≈ 0.652 µM)

SMILES: CO[C@@H]1[C@@H](O)[C@H](O[C@@H]2[C@@H](O)[C@H](O[C@H]3[C@H](O)[C@@H](O)[C@H](O[C@H]4[C@H](O[C@H]5CC[C@]6(C)C7C[C@H](O)[C@]89C(=O)O[C@@](C)(CCCC(C)C)[C@@]8(O)CC[C@@]9(C)C7=CC[C@H]6C5(C)C)OC[C@@H](OS(=O)(=O)[O-])[C@@H]4O)O[C@@H]3C)O[C@H](COS(=O)(=O)[O-])[C@H]2O)O[C@H](CO)[C@H]1O.[Na+].[Na+] (some centres undefined)
inhibition zone (IZ) (Cladosporium cucumerinum): 8 mm

MIC (Nannizzia gypsea [7]): 1 µg/mL
MIC (Kluyveromyces marxianus [8]): 1 µg/mL
MIC (Candida albicans [9]): 1 µg/mL
MIC (Trichophyton rubrum): 1 µg/mL
SMILES: C=C(C)CCC[C@]1(C)OC(=O)[C@]23[C@@H](O)C=C4[C@@H](CC[C@H]5C(C)(C)[C@@H](O[C@@H]6OC[C@@H](OS(=O)(=O)[O-])[C@H](O)[C@H]6O[C@@H]6O[C@H](C)[C@@H](O[C@@H]7O[C@H](CO)[C@@H](O)[C@H](O[C@@H]8O[C@H](CO)[C@@H](O)[C@H](OC)[C@H]8O)[C@H]7O)[C@H](O)[C@H]6O)CC[C@]45C)[C@]2(C)CC[C@@]31O.[Na+]
